Where a SMILES comes first, the peptide text is derived from it. Where no end group is shown, it is not given here. [ ]: non-standard residue; d: D form. The star is where a group is joined. Sta = CC(C)C[C@H](N)[C@@H](O)CC(=O)O; Isovaleryl = CC(C)CC(=O)*
Test system: membrane-bound endothelin-converting enzyme
Test: not given
Settings: FEBS Lett., 272, 166-170 (1990); cited from earlier work

Row | Compound | inhibition of membrane-bound enzyme (in words)
1 | CC(C)C[C@H](NP(=O)(O)O[C@@H]1O[C@@H](C)[C@H](O)[C@@H](O)[C@H]1O)C(=O)N[C@@H](Cc1c[nH]c2ccccc12)C(=O)O [Phosphoramidone] | inhibited

Target: T1, Endothelin-Converting Enzyme (Sus scrofa, UniProt A0A8W4FBH0)
T1 construct: 1.0% Triton X-100 was added to solubilize enzyme activity; from tissue; host or cells: pig lung, solubilised 100,000×G membrane fraction
T1 sequence (A0A8W4FBH0 1-751): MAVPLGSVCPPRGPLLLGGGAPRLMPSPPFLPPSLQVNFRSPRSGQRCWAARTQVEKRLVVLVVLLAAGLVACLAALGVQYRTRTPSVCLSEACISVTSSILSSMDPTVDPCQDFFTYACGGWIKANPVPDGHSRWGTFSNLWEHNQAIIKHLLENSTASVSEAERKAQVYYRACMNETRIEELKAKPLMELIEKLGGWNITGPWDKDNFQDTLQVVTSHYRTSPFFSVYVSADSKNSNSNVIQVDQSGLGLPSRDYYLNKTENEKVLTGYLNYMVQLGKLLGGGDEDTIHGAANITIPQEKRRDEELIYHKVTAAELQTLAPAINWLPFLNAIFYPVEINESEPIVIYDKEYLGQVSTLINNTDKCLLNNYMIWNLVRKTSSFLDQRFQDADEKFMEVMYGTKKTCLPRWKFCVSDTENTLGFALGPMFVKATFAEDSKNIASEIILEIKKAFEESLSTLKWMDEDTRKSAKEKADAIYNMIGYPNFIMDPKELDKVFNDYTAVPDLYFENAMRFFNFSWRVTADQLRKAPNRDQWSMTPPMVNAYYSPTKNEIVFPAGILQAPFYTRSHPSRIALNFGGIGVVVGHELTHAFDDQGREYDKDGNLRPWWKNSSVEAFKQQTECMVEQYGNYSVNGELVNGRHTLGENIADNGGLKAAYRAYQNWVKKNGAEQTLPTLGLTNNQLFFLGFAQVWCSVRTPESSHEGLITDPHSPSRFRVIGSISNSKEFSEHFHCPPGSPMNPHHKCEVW
Test: Kinetic coefficient (Lineweaver-Burk plot)
Format: biochemical
Settings: substrate pig big endothelin, read-out: Michaelis coefficient
Procedure: The Michaelis coefficient of this enzyme to pig big endothelin was calculated to be about 5×10^-6 M from the Lineweaver-Burk plot.

Row | Compound | Km
2 | pig big endothelin: substrate; pig big endothelin I (1-39) (Peptide Institute Inc.) (CSCSSLMDKECVYFCHLDIIWVNTPEHIVPYGLGSPSRS; ends and bridges not checked; cysteine pairing not given here; UniProt P09558 53-91, looked up, fragment) | ~5 µM

Target: T1, Endothelin-Converting Enzyme
Test: Measurement of endothelin-converting enzyme inhibiting activity of phosphonic acid derivatives (pig big endothelin I (1-39) substrate, endothelin I sandwich enzyme immunoassay)
Format: biochemical
Settings: 37° C., 1 hour, pH 7.2, pig lung solubilized membrane fraction
Procedure: Measurement of Endothelin-Converting Enzyme Inhibiting Activity of Phosphonic Acid Amide Derivatives
In 1.5-ml centrifugal tube (BIO-BIK), 80 μl of 50 mM bis-Trispropane-hydrochloric acid buffer (pH 7.2) supplemented with 1.0 mg/ml bovine serum albumin, 0.1M sodium chloride, 1.0 mM phenylmethanesulfonyl fluoride (PMSF, Wako Pure Cnemical Industries), 1.0 μg/ml leupeptin (Peptide Institute Inc.), 1.0 μg/ml chymostatin (Peptide Institute Inc.), 1.0 μg/ml pepstatin A (Peptide Institute Inc.), 1.0 μM E-64 (Peptide Institute Inc.), 1.0 μm thiorphan (Sigma) and 1.0 μM angiotensin-converting enzyme inhibitor [CV-5975, Inada et al., Japanese Journal of Pharmacology, 47, 135-141 (1988)], 5 μl of a sample solution to be tested (an aqueous solution or an aqueous solution containing 2% dimethyl sulfoxide) or 5 μl of distilled water for the control plot, and 10 μl of an endothelin-converting enzyme sample prepared as described in the following reference example were placed. After standing at 37° C. for 30 minutes, 5 μl of a substrate solution [physiological phosphate buffer (PBS, containing 0.2 g of potassium chloride, 0.2 g of potassium dihydrogenphosphate, 8.0 g of sodium chloride and 1.14 g of disodium hydrogenphosphate in 1,000 ml of distilled water) supplemented with 1.0×10^-6 M pig big endothelin I (1-39) (Peptide Institute Inc.) and 1.0 mg/ml bovine serum albumin] was added thereto to initiate enzyme reaction. After reaction at 37° C. for 1 hour, the reaction mixture was boiled in boiling water for 5 minutes, thereby terminating the reaction: The resulting insoluble material was removed by centrifugation, and endothelin I (1-21) produced by the enzyme reaction contained in 10 μl of the supernatant was quantified by the endothelin I-specific sandwich enzyme immunoassay method already established [Suzuki et al., J. Immuno. Meth., 188, 245-250 (1989)], and compared with the amount of endothelin produced in the control plot to evaluate the enzyme inhibiting activity.
As endothelin-converting enzymes existing in organisms, two kinds of metalloenzymes different in enzymological properties are generally known. One exits in the cytoplasms, and the other is membrane-bound. The latter is characterized by that it is inhibited with phosphoramidon known as an inhibitor for metalloproteases [Matsumura et al., FEBS Lett., 272, 166-170 (1990)]. The endothelin-converting enzyme in the present invention means the membrane-bound enzyme of these two kinds of enzymes.
(§1) About 500 g of the pig lung (of one pig) was sliced and disrupted in 2.0 liter of PBS supplemented with 0.05% sodium azide, 1.0 mM dithiothreitol, 1.0 mM PMSF, 1.0 μg/ml leupeptin, 1.0 μg/ml chymostatin, 1.0 μg/ml pepstatin A and 1.0 μM E-64, and then homogenized (1 minute×5 times) by a Polytron mixer ([…]). The centrifuged supernatant (240×G, 5 minutes) was further centrifuged at 10,000×G for 15 minutes, and the resulting supernatant was subjected to ultracentrifuge (100,000×G, 90 minutes) to obtain membrane fraction as a precipitate. To this precipitate, 1.0% Triton X-100 was added to solubilize enzyme activity. […] This was diluted to 2.0 mg of protein/ml to use for assaying the activity of enzyme inhibitors.

Row | Compound | IC50
3 | CC(C)C[C@H](NP(=O)(O)Cc1cccc2ccccc12)C(=O)N[C@@H](Cc1c[nH]c2ccccc12)C(=O)O [N-(1-Naphthylmethylphosphonyl)-Leu-Trp.2Na] | 0.2 µM
4 | CC(C)C[C@H](NP(=O)(O)Cc1ccc2ccccc2c1)C(=O)N[C@@H](Cc1c[nH]c2ccccc12)C(=O)O [N-(2-Naphthylmethylphosphonyl)-Leu-Trp.2Na] | 1 µM
5 | CC(C)CCP(=O)(O)N[C@@H](CC(C)C)C(=O)N[C@@H](Cc1c[nH]c2ccccc12)C(=O)O [N-(Isoamylphosphonyl)-Leu--Trp.2Na, N-(Isoamylphosphonyl)-Leu-Trp.2Na] | 0.7 µM
6 | O=C(O)[C@H](Cc1c[nH]c2ccccc12)NC(=O)[C@H](CC1CCCCC1)NP(=O)(O)CCc1ccccc1 [N-(Phenethylphosphonyl)-Cha--Trp.2Na, N-(Phenethylphosphonyl)-Cha-Trp.2Na] | 1 µM
7 | CC[C@H](C)[C@H](NP(=O)(O)CCc1ccccc1)C(=O)N[C@@H](Cc1c[nH]c2ccccc12)C(=O)O [N-(Phenethylphosphonyl)-Ile--Trp.2Na, N-(Phenethylphosphonyl)-Ile-Trp.2Na] | 1.2 µM
8 | CC(C)C[C@H](NC(=O)[C@H](CC(C)C)NP(=O)(O)CCc1ccccc1)C(=O)O [N-(Phenethylphosphonyl)-Leu--Leu.2Na, N-(Phenethylphosphonyl)-Leu-Leu.2Na] | 4.8 µM
9 | CC(C)C[C@H](NP(=O)(O)CCc1ccccc1)C(=O)N[C@@H](Cc1ccccc1)C(=O)O [N-(Phenethylphosphonyl)-Leu--Phe.2Na, N-(Phenethylphosphonyl)-Leu-Phe.2Na] | 5.7 µM
10 | CC(C)C[C@H](NP(=O)(O)CCc1ccccc1)C(=O)N[C@@H](Cc1c[nH]c2ccccc12)C(=O)O [N-(Phenethylphosphonyl)-Leu--Trp.2Na, N-(Phenethylphosphonyl)-Leu-Trp.2Na] | 0.2 µM
11 | CCCC[C@H](NP(=O)(O)CCc1ccccc1)C(=O)N[C@@H](Cc1c[nH]c2ccccc12)C(=O)O [N-(Phenethylphosphonyl)-Nle--Trp.2Na, N-(Phenethylphosphonyl)-Nle-Trp.2Na] | 1.4 µM
12 | O=C(O)[C@H](Cc1c[nH]c2ccccc12)NC(=O)[C@H](Cc1ccccc1)NP(=O)(O)CCc1ccccc1 [N-(Phenethylphosphonyl)-Phe--Trp.Na, N-(Phenethylphosphonyl)-Phe-Trp.2Na] | 0.5 µM
13 | CC(C)[C@H](NP(=O)(O)CCc1ccccc1)C(=O)N[C@@H](Cc1c[nH]c2ccccc12)C(=O)O [N-(Phenethylphosphonyl)-Val--Trp.2Na, N-(Phenethylphosphonyl)-Val-Trp.2Na] | 2.8 µM
14 | CC(C)C[C@H](NP(=O)(O)CCc1cccc2ccccc12)C(=O)N[C@@H](Cc1c[nH]c2ccccc12)C(=O)O [N-[2-(1-Naphthyl)ethylphosphonyl]-Leu-Trp.2Na] | 0.4 µM
15 | CC(C)C[C@H](NP(=O)(O)CCc1ccc2ccccc2c1)C(=O)N[C@@H](Cc1c[nH]c2ccccc12)C(=O)O [N-[2-(2-Naphthyl)ethylphosphonyl]-Leu-Trp.2Na] | 0.1 µM

Target: T1, Endothelin-Converting Enzyme
Test: Inhibition effect of various protease inhibitors on endothelin-converting enzyme
Format: biochemical, pig
Settings: Concentration 100 μM; read-out: Inhibiting Ratio (%)
Procedure: as §1

Row | Compound | inhibition at 100 µM
16 | CC(C)C[C@H](NC(=O)[C@@H](NC(=O)N[C@@H](Cc1ccccc1)C(=O)O)[C@@H]1CCN=C(N)N1)C(=O)N[C@H](C=O)Cc1ccccc1 [Chymostatin] | 2%
17 | CC(C)C[C@H](NC(=O)[C@H]1O[C@@H]1C(=O)O)C(=O)NCCCCN=C(N)N [Example E-64] | 9%
18 | CC(=O)N[C@@H](CC(C)C)C(=O)N[C@@H](CC(C)C)C(=O)N[C@H](C=O)CCCNC(=N)N [Leupeptin] | 23%
19 | CC(C)CC(=O)N[C@H](C(=O)N[C@H](C(=O)N[C@@H](CC(C)C)[C@@H](O)CC(=O)N[C@@H](C)C(=O)N[C@@H](CC(C)C)[C@@H](O)CC(=O)O)C(C)C)C(C)C [Pepstatin] (Isovaleryl-VV[Sta]A[Sta]-OH) | 20%
20 | CC(C)C[C@H](NP(=O)(O)O[C@@H]1O[C@@H](C)[C@H](O)[C@@H](O)[C@H]1O)C(=O)N[C@@H](Cc1c[nH]c2ccccc12)C(=O)O [Phosphoramidone] | 70%

Same assay, conditions: Concentration 1000 μM

Row | Compound | Inhibiting Ratio (%)
21 | O=S(=O)(F)Cc1ccccc1 [PMSF, phenylmethanesulfonyl fluoride] | 32%

Same assay, conditions: Concentration 1000 μM; read-out: Inhibiting Ratio (%)

Row | Compound | inhibition at 1000 µM
22 | O[C@H](CS)[C@H](O)CS (racemic) [Dithiothreitol] | 96%
23 | c1cnc2c(c1)ccc1cccnc12 [o-Phenanthroline] | 92%

Same assay, conditions: read-out: Inhibiting Ratio (%)

Row | Compound | inhibition at 1000 µM
24 | O=C(O)CN(CCN(CC(=O)O)CC(=O)O)CC(=O)O [Ethylenediaminetetraacetic acid] | 70%
